Values of other authors, collected in patent EP4721737A1, “USE OF PHARMACEUTICAL COMPOSITION COMPRISING COMPOUND HAVING BIS(AZANYLYLIDENE) SULFONYL STRUCTURE FOR TREATING ANEMIA-RELATED DISEASES” (Scinnohub Pharmaceutical Co., Ltd., priority 2023, dated 2024).

Details: Phase II clinical studies, at week 12; cited from earlier work

For `O=C(c1ccc(NS(=O)(=O)c2cccc3cccnc23)cc1)N1CCN(CC2CC2)CC1` [Mitapivat], the “average increase in HGB” value is given as 1.34 g/dL and the “patients achieved an increase in HGB of 1.0 g/dL” value is given as 92.3%.
